Laboratory results: patent US20240417403A1, “CRYSTALLINE FORMS OF QUINAZOLINE DERIVATIVES, PREPARATION, COMPOSITION AND USE THEREOF” (Hoffmann-La Roche Inc., priority 2021, published 2024)
Counter-ions that a name gives are not always drawn. Blank lines part the entries; values can stand above or below the molecule they belong to.

Experiments:
Type in all cases: physicochemical
[1] = TGA and DSC/mDSC thermal analysis (characterization of forms)
Protocol: In salt screening and evaluation and in polymorph study, TGA was performed using a TA Q500, TA Q5000 or Discovery 5500 TGA from TA Instruments. DSC or mDSC was performed using a TA Q200/Q2000 or Discovery 2500 DSC from TA Instruments.

[2] = Bulk density, tap density and Carr index (flowability and compressibility); conditions: for Carr index: (ρ1−ρ0)/ρ1; for Tapped density: tapped 200 times
Protocol: Bulk density was determined by adding appropriate amount (m) of material into a 5 mL graduate cylinder and recording its apparent volume (v0). The bulk density was obtained by dividing the amount of material by its apparent volume of the unsettled material (ρ0=m/v0). For tap density, the cylinder was then tapped for 200 times. The tap density was then calculated by dividing the amount of material by its final tapped volume (ρ1=m/v1). Carr index=(ρ1−ρ0)/ρ1.
(§1) The results of amorphous freebase, Freebase Type F, Fumarate Type B and Fumarate Type E for flowability and compressibility were summarized in Table 30. Generally, powders with smaller Karl index would show better compressibility and flowability. And powders with smaller angle of repose would show better flowability.

[3] = Angle of repose (flowability)
From the text: Form the angle of repose on a fixed base with a retaining lip to retain a layer of powder on the base. Carefully build up a symmetrical cone of powder. Determine the angle of repose by measuring the height (h) and base radius (r) of the cone of powder and calculating the angle of repose a from the following equation α=tan^−1(h/r).
as §1

[4] = Solid state stability, 40° C./75% RH/open for 1 month (XRPD, HPLC purity); conditions: for Purity/Initial by HPLC area % / Form Change: 40° C., 75% RH, open; for Form Change: by XRPD; for Purity change by HPLC (chemical stability) compared with amorphous freebase: 40° C./75% RH; for Solid form change by XRPD (physical stability): 40° C./75% RH/open
Protocol: (§2) An Agilent 1260 HPLC instrument was utilized and detailed chromatographic conditions for purity and solubility analysis were listed in Table 6.
To evaluate the solid state stability of the selected forms (amorphous freebase, Freebase Type F, Fumarate Type A and Fumarate Type B) samples were stored under 40° C./75% RH/open for 1 month. Stability samples were characterized by XRPD to check any solid form change and by HPLC to check purity change.

[5] = Kinetic solubility in FaSSIF; conditions: 37° C.
Protocol: as §2
Kinetic solubility of amorphous freebase and Fumarate Type B/E was measured in FaSSIF to evaluate the solubility. […] After centrifugation, supernatants were collected for HPLC tests.

[6] = Equilibrium solubility in H2O; conditions: 37° C., stirred 24 hours
Protocol: as §2
About 5˜10 mg of solids were suspended in H2O to get a mixture. The suspensions were stirred for 24 hours, followed by centrifugation and filtration to obtain supernatants for HPLC test.

[7] = Equilibrium solubility in pH 4.5 buffer; conditions: 37° C., stirred 24 hours
Protocol: as §2
About 5˜10 mg of solids were suspended in pH 4.5 buffer to get a mixture. The suspensions were stirred for 24 hours, followed by centrifugation and filtration to obtain supernatants for HPLC test.

[8] = Equilibrium solubility in pH 6.8 buffer; conditions: 37° C., stirred 24 hours
Protocol: as §2
About 5˜10 mg of solids were suspended in pH 6.8 buffer to get a mixture. The suspensions were stirred for 24 hours, followed by centrifugation and filtration to obtain supernatants for HPLC test.

[9] = Contact angle against water (wettability)
Protocol: The wettability of the solid forms was evaluated by the contact angle against water.

[10] = Hygroscopicity by DVS; conditions: 80% RH, 25° C.
Protocol: DVS is measured via a SMS (Surface Measurement Systems) DVS Intrinsic. The relative humidity at 25° C. is calibrated against deliquescence point of LiCl, Mg(NO3)2 and KCl.
DVS isotherm plot was collected at 25° C. to investigate the selected solid forms stability as a function of humidity. Compared with amorphous freebase, the hygroscopicity of Freebase Type B, Fumarate Type A, Fumarate Type B and Fumarate Type E was lower under 80% RH/25° C.

[11] = Mechanical stability (XRPD form change after grinding and tableting)
Protocol: Mechanical stability of the solid forms was evaluated by monitoring the XRPD form change after grinding (˜5 min) and tableting (˜234 Mpa).

[12] = crystalline salts, listed as HCl salt Type A
[13] = crystalline salts, listed as HCl salt Type B

TGA weight loss (150° C., %) ([1]; crystalline salts): 3.0% | DSC endotherm (° C., peak) ([1]; crystalline salts): 106.7 °C
SMILES: COc1ccc2ncnc(Nc3ccc(Oc4cc5ncnn5cn4)c(C)c3)c2c1O[C@@H]1CCN(C)CC1(F)F [Adipate Type A, (R)-N-(4-([1,2,4]triazolo[1,5-c]pyrimidin-7-yloxy)-3-methylphenyl)-5-((3,3-difluoro-1-methylpiperidin-4-yl)oxy)-6-methoxyquinazolin-4-amine]

TGA weight loss (%, temp.) ([1]; fumarate forms, to 150° C.): 3.6 (to 150° C.) %
SMILES: COc1ccc2ncnc(Nc3ccc(Oc4cc5ncnn5cn4)c(C)c3)c2c1O[C@@H]1CCN(C)CC1(F)F [Amorphous Fumarate, (R)-N-(4-([1,2,4]triazolo[1,5-c]pyrimidin-7-yloxy)-3-methylphenyl)-5-((3,3-difluoro-1-methylpiperidin-4-yl)oxy)-6-methoxyquinazolin-4-amine]

DSC endotherm (° C., peak) ([1]; free base forms): 71.3 °C | TGA weight loss (%, temp.) ([1]; free base forms, to 140° C.): 9.9 (to 140° C.) %
SMILES: COc1ccc2ncnc(Nc3ccc(Oc4cc5ncnn5cn4)c(C)c3)c2c1O[C@@H]1CCN(C)CC1(F)F [Freebase Type A, (R)-N-(4-([1,2,4]triazolo[1,5-c]pyrimidin-7-yloxy)-3-methylphenyl)-5-((3,3-difluoro-1-methylpiperidin-4-yl)oxy)-6-methoxyquinazolin-4-amine]

TGA weight loss (%, temp.) ([1]; free base forms, to 150° C.): 1.5 (to 150° C.) %
SMILES: COc1ccc2ncnc(Nc3ccc(Oc4cc5ncnn5cn4)c(C)c3)c2c1O[C@@H]1CCN(C)CC1(F)F [Freebase Type C, (R)-N-(4-([1,2,4]triazolo[1,5-c]pyrimidin-7-yloxy)-3-methylphenyl)-5-((3,3-difluoro-1-methylpiperidin-4-yl)oxy)-6-methoxyquinazolin-4-amine]

Bulk density [2]: 0.19 g/mL | Carr index [2]: 31.9% | Tapped density [2]: 0.28 g/mL | Angle of repose [3]: 35.8° | Purity/Initial by HPLC area % [4]: 100.3% | Form Change [4]: No | Purity change by HPLC (chemical stability) compared with amorphous freebase [4]: lower purity change | Solid form change by XRPD (physical stability) [4]: no form change | TGA weight loss (%, temp.) ([1]; free base forms, to 70° C.): 5.7 (to 70° C.) %
SMILES: COc1ccc2ncnc(Nc3ccc(Oc4cc5ncnn5cn4)c(C)c3)c2c1O[C@@H]1CCN(C)CC1(F)F [Freebase Type F, (R)-N-(4-([1,2,4]triazolo[1,5-c]pyrimidin-7-yloxy)-3-methylphenyl)-5-((3,3-difluoro-1-methylpiperidin-4-yl)oxy)-6-methoxyquinazolin-4-amine]

TGA weight loss (%, temp.) ([1]; free base forms, to 70° C.): 7.3 (to 70° C.) %
SMILES: COc1ccc2ncnc(Nc3ccc(Oc4cc5ncnn5cn4)c(C)c3)c2c1O[C@@H]1CCN(C)CC1(F)F [Freebase Type G, (R)-N-(4-([1,2,4]triazolo[1,5-c]pyrimidin-7-yloxy)-3-methylphenyl)-5-((3,3-difluoro-1-methylpiperidin-4-yl)oxy)-6-methoxyquinazolin-4-amine]

Solubility in FaSSIF ([5]; timepoint 1 h): ≥390 µg/mL | Solubility in FaSSIF ([5]; timepoint 2 h): ≥390 µg/mL | Solubility in FaSSIF ([5]; timepoint 24 h): ≥390 µg/mL | Solubility in H2O [6]: ≥5200 µg/mL | Solubility in pH 4.5 buffer [7]: 2.3 mg/mL | Solubility in pH 6.8 buffer [8]: 0.90 mg/mL | Bulk density [2]: 0.36 g/mL | Carr index [2]: 30.4% | Tapped density [2]: 0.52 g/mL | Angle of repose [3]: 26.6° | Contact angle [9]: 29.0° | Weight change at 80% RH/25° C. by DVS [10]: 2.1% | Purity/Initial by HPLC area % [4]: 99.6% | Form Change [4]: No | Purity change by HPLC (chemical stability) compared with amorphous freebase [4]: lower purity change | Solid form change by XRPD (physical stability) [4]: no form change | TGA weight loss (150° C., %) ([1]; crystalline salts): 4.9% | TGA weight loss (%, temp.) ([1]; fumarate forms, to 150° C.): 4.9 (to 150° C.) %
SMILES: COc1ccc2ncnc(Nc3ccc(Oc4cc5ncnn5cn4)c(C)c3)c2c1O[C@@H]1CCN(C)CC1(F)F [Fumarate Type B, (R)-N-(4-([1,2,4]triazolo[1,5-c]pyrimidin-7-yloxy)-3-methylphenyl)-5-((3,3-difluoro-1-methylpiperidin-4-yl)oxy)-6-methoxyquinazolin-4-amine]

Solubility in FaSSIF ([5]; timepoint 1 h): ≥360 µg/mL | Solubility in FaSSIF ([5]; timepoint 2 h): ≥360 µg/mL | Solubility in FaSSIF ([5]; timepoint 24 h): ≥360 µg/mL | Solubility in H2O [6]: ≥5000 µg/mL | Solubility in pH 4.5 buffer [7]: 1.3 mg/mL | Solubility in pH 6.8 buffer [8]: 0.92 mg/mL | Bulk density [2]: 0.30 g/mL | Carr index [2]: 41.7% | Tapped density [2]: 0.51 g/mL | Angle of repose [3]: 38.3° | Weight change at 80% RH/25° C. by DVS [10]: 2.1% | XRPD form change after grinding ([11]; grinding ~5 min): No | XRPD form change after tableting ([11]; tableting ~234 Mpa): No | TGA weight loss (150° C., %) ([1]; crystalline salts): 9.4% | TGA weight loss (%, temp.) ([1]; fumarate forms, to 150° C.): 9.4 (to 150° C.) %
SMILES: COc1ccc2ncnc(Nc3ccc(Oc4cc5ncnn5cn4)c(C)c3)c2c1O[C@@H]1CCN(C)CC1(F)F [Fumarate Type E, (R)-N-(4-([1,2,4]triazolo[1,5-c]pyrimidin-7-yloxy)-3-methylphenyl)-5-((3,3-difluoro-1-methylpiperidin-4-yl)oxy)-6-methoxyquinazolin-4-amine]

TGA weight loss (150° C., %) [1, 12]: 8.8% | DSC endotherm (° C., peak) [1, 12]: 110.0 °C
SMILES: COc1ccc2ncnc(Nc3ccc(Oc4cc5ncnn5cn4)c(C)c3)c2c1O[C@@H]1CCN(C)CC1(F)F [HCl Salt Type A, (R)-N-(4-([1,2,4]triazolo[1,5-c]pyrimidin-7-yloxy)-3-methylphenyl)-5-((3,3-difluoro-1-methylpiperidin-4-yl)oxy)-6-methoxyquinazolin-4-amine]

TGA weight loss (150° C., %) [1, 13]: 2.3% | DSC endotherm (° C., peak) [1, 13]: 241.7 °C
SMILES: COc1ccc2ncnc(Nc3ccc(Oc4cc5ncnn5cn4)c(C)c3)c2c1O[C@@H]1CCN(C)CC1(F)F [HCl Salt Type B, (R)-N-(4-([1,2,4]triazolo[1,5-c]pyrimidin-7-yloxy)-3-methylphenyl)-5-((3,3-difluoro-1-methylpiperidin-4-yl)oxy)-6-methoxyquinazolin-4-amine]

TGA weight loss (150° C., %) ([1]; crystalline salts): 3.7%
SMILES: COc1ccc2ncnc(Nc3ccc(Oc4cc5ncnn5cn4)c(C)c3)c2c1O[C@@H]1CCN(C)CC1(F)F [L-tartrate Type A, (R)-N-(4-([1,2,4]triazolo[1,5-c]pyrimidin-7-yloxy)-3-methylphenyl)-5-((3,3-difluoro-1-methylpiperidin-4-yl)oxy)-6-methoxyquinazolin-4-amine]

TGA weight loss (150° C., %) ([1]; crystalline salts): 10.2% | DSC endotherm (° C., peak) ([1]; crystalline salts): 65.1 °C
SMILES: COc1ccc2ncnc(Nc3ccc(Oc4cc5ncnn5cn4)c(C)c3)c2c1O[C@@H]1CCN(C)CC1(F)F [Mesylate Type A, (R)-N-(4-([1,2,4]triazolo[1,5-c]pyrimidin-7-yloxy)-3-methylphenyl)-5-((3,3-difluoro-1-methylpiperidin-4-yl)oxy)-6-methoxyquinazolin-4-amine]

TGA weight loss (150° C., %) ([1]; crystalline salts): 7.6% | DSC endotherm (° C., peak) ([1]; crystalline salts): 63.4 °C
SMILES: COc1ccc2ncnc(Nc3ccc(Oc4cc5ncnn5cn4)c(C)c3)c2c1O[C@@H]1CCN(C)CC1(F)F [Mesylate Type B, (R)-N-(4-([1,2,4]triazolo[1,5-c]pyrimidin-7-yloxy)-3-methylphenyl)-5-((3,3-difluoro-1-methylpiperidin-4-yl)oxy)-6-methoxyquinazolin-4-amine]

TGA weight loss (150° C., %) ([1]; crystalline salts): 9.5%
SMILES: COc1ccc2ncnc(Nc3ccc(Oc4cc5ncnn5cn4)c(C)c3)c2c1O[C@@H]1CCN(C)CC1(F)F [Phosphate Type A, (R)-N-(4-([1,2,4]triazolo[1,5-c]pyrimidin-7-yloxy)-3-methylphenyl)-5-((3,3-difluoro-1-methylpiperidin-4-yl)oxy)-6-methoxyquinazolin-4-amine]
